Laboratory results: ChEMBL document CHEMBL1177740, “Steroidal saponins from two species of Dracaena” (J Nat Prod, 2010)

Key:
HT-29 = test: Cytotoxicity against human HT-29 cells by MTT assay; assay type: functional, cell-based
HCT-116 = test: Cytotoxicity against human HCT116 cells by MTT assay; assay type: functional, cell-based

SMILES	IC50 (HT-29) [µM]	IC50 (HCT-116) [µM]
C[C@@H]1CC[C@]2(OC1)O[C@H]1C[C@H]3[C@@H]4CC=C5C[C@@H](O[C@@H]6O[C@H](CO)[C@@H](O)[C@H](O[C@@H]7O[C@@H](C)[C@H](O)[C@@H](O)[C@H]7O)[C@H]6O[C@@H]6O[C@@H](C)[C@H](O)[C@@H](O)[C@H]6O)CC[C@]5(C)[C@H]4CC[C@]3(C)[C@@]1(O)[C@@H]2C	1.67	2.04
C[C@@H]1O[C@@H](O[C@H]2[C@H](O[C@H]3CC[C@@]4(C)C(=CC[C@@H]5[C@@H]4CC[C@@]4(C)[C@H]5C[C@@H]5O[C@@]6(C[C@@H](O)[C@@H](C)CO6)[C@@H](C)[C@@]54O)C3)O[C@H](CO)[C@@H](O)[C@@H]2O[C@@H]2O[C@@H](C)[C@H](O)[C@@H](O)[C@H]2O)[C@H](O)[C@H](O)[C@H]1O [ARBOREASAPONIN B]	100	100
CC(=O)OC[C@H]1O[C@@H](O[C@H]2CC[C@@]3(C)C(=CC[C@@H]4[C@@H]3CC[C@@]3(C)[C@H]4C[C@@H]4O[C@@]5(CC[C@@H](C)CO5)[C@@H](C)[C@@]43O)C2)[C@H](O[C@@H]2O[C@@H](C)[C@H](O)[C@@H](O)[C@H]2O)[C@@H](O[C@@H]2O[C@@H](C)[C@H](O)[C@@H](O)[C@H]2O)[C@@H]1O [ARBOREASAPONIN A]	8.54	7.6
C=C1CO[C@]2(O[C@H]3C[C@H]4[C@@H]5CC=C6C[C@@H](O)C[C@@H](O[C@@H]7O[C@H](C)[C@H](O)[C@H](O[C@@H]8O[C@@H](C)[C@H](O)[C@@H](O)[C@H]8O)[C@H]7O[C@@H]7OC[C@@H](O)[C@H](O)[C@H]7O)[C@]6(C)[C@H]5CC[C@]4(C)[C@H]3[C@@H]2C)[C@@H](O)[C@H]1O[C@@H]1OC[C@H](O)[C@H](O)[C@H]1O [DEISTELIANOSIDE B]	70.7	21.2
C=C1CO[C@@]2(O[C@H]3C[C@H]4[C@@H]5CC=C6C[C@@H](O)C[C@@H](O[C@@H]7OC[C@H](O)[C@H](O[C@@H]8OC[C@@H](O)[C@H](O)[C@H]8O[C@@H]8O[C@@H](C)[C@H](O)[C@@H](O)[C@H]8O)[C@H]7O)[C@]6(C)[C@H]5CC[C@]4(C)[C@H]3[C@@H]2C)[C@@H](O)[C@H]1O[C@@H]1OC[C@H](O)[C@H](O)[C@H]1O	29.5	29
C[C@@H]1CC[C@@]2(OC1)O[C@H]1C[C@H]3[C@@H]4CC=C5C[C@@H](O[C@@H]6O[C@H](CO)[C@@H](O)[C@H](O[C@@H]7O[C@@H](C)[C@H](O)[C@@H](O)[C@H]7O)[C@H]6O)CC[C@]5(C)[C@H]4CC[C@]3(C)[C@@]1(O)[C@@H]2C [MANIOSIDE A]	56.2	43
CC(=O)O[C@H]1C(=O)[C@@]2(C)[C@H]([C@H](OC(=O)c3ccccc3)[C@]3(O)C[C@H](OC(=O)[C@H](O)[C@@H](NC(=O)c4ccccc4)c4ccccc4)C(C)=C1C3(C)C)[C@]1(OC(C)=O)CO[C@@H]1C[C@@H]2O [PACLITAXEL]	0.0014	0.00321
